These results are taken from patent publication US7834148B2, “Protein phosphorylation imaging systems, methods of making phosphorylation imaging systems, and methods of use thereof” (Stanford University, priority 2006, dated 2010).

The subject of one data set is Akt kinase activity. Put plainly: Akt kinase sensor complemented FL activity, bioluminescence imaging of intact 293T/AS1T and 293T/AS1A stable cells. It counts as cell-based, human. The protocol: Complemented FL activity at each time point was determined by bioluminescence imaging of intact cells by addition of D-luciferin (FIG. 7a), prior to normalization for protein content (FIG. 7b).
FL activities in intact cells were determined by bioluminescence imaging of intact cells as described above. Cells were lysed in 1% NP40 buffer (Cell Signaling, Beverly, Mass.) for 15 mins on ice followed by centrifugation at 1×10^4 g to remove cell debris. Protein concentrations were determined by Biorad protein Dc assay (Biorad). FL activities were normalized to protein content and then to that of carrier control treated cells and expressed as normalized FL activity±standard error of means (S.E.M.)

Data set [1] has as its system phosphorylated Akt(S^473). Put plainly: Phosphorylation-specific western blotting of Akt in cell lysates. It counts as cell-based, human. To be noted: LY 24 hours or perifosine 6 hours. The protocol:
To validate AS1T as a genetically-encoded reporter for indirect imaging of endogenous Akt kinase activity, confirmation needed to be made that inhibition of endogenous Akt phosphorylation/kinase activities by LY and perifosine corresponded to increase in complemented FL activities in 293T/AS1T cells, but not in 293T/AS1A cells. 293T/AS1T and 293T/AS1A cells were treated with perifosine (6 hours), LY (24 hours) and their respective carrier controls. Complemented FL activities were determined by bioluminescence imaging of intact cells while Akt phosphorylation status/kinase activities in cell lysates were determined by phosphorylation-specific western blotting and in vitro kinase assay using purified glycogen synthase kinase 3β (GSK-3β) as the substrate, respectively. In 293T/AS1T cells treated with LY or perifosine, complemented FL activity increased (FIGS. 8a and 8c), while the amount of phosphorylated Akt (FIGS. 8b and 8d, top panels) and phosphorylated GSk-3, (FIGS. 8b and 8d, bottom panel) decreased, relative to carrier control treated cells. […]
To determine the expression of total and phosphorylated Akt in 293T/AS1A and 293T/AS1T, cell lysates from the triplicate wells from the above FL assay were combined and the protein concentrations were re-determined. […]

The next data set relates to Akt kinase. Put plainly: In vitro Akt kinase assay in cell lysates using purified GSK-3β as substrate. To be noted: LY 24 hours or perifosine 6 hours. It counts as cell-based, human. The method, then: Complemented FL activities were determined by bioluminescence imaging of intact cells while Akt phosphorylation status/kinase activities in cell lysates were determined by phosphorylation-specific western blotting and in vitro kinase assay using purified glycogen synthase kinase 3β (GSK-3β) as the substrate, respectively.
To measure Akt kinase activities, 200 μg of whole cell lysates were used in an in vitro Akt kinase assay using a Cell Signaling kit (Beverly, Mass.). Briefly, Akt was immunoprecipitated using the immobilized Akt antibody, followed by an in vitro kinase assay at 30° C. for 1 hour using 1 μg of the purified GSK-3β fusion protein as the substrate. The kinase reaction was terminated with 3× loading buffer and heated at 95° C. for 3 mins. […] Membranes were developed as described above. In all cases, band intensities were quantified by Image J (National Institute of Health, Bethesada, Md.).

Data set [2] is described as follows: Water solubility (statement). Format: physicochemical.
Setting [3] is: 293T/AS1T cells, relative to carrier control.

SMILES strings stand for the structures.

Regarding `CCCCCCCCCCCCCCCCCCOP(=O)([O-])OC1CC[N+](C)(C)CC1` [perifosine], the “complemented FL activity” value with Akt kinase activity (293T/AS1T at all time points (6, 12, 24 hours) and concentrations tested, compared to 293T/AS1A, p<0.05) is listed as “dose-dependent increase”. Besides, in the data set on Akt kinase activity (293T/AS1T cells), the “time of maximum increase in complemented FL activity” value came out at 6 h. Also, in the data set with Akt kinase activity (293T/AS1T, drug then carrier control, vs carrier control then drug or drug throughout, LY 50 μM 24+24 hours, perifosine 25 μM 6+6 hours), the “complemented FL activity after washout (reversibility)” value was “significantly lower”. Besides, the “amount of phosphorylated Akt” value in data set [1] (293T/AS1A cells) and in data set [1] (setting [3]) was “decreased” each time. Besides, the “amount of phosphorylated GSK-3β” value with Akt kinase (293T/AS1A cells) and in the data set on Akt kinase (setting [3]) was “decreased” in each case. Besides, the water solubility result in data set [2] was “water soluble”.
